Source: ChEMBL document CHEMBL1201862, “PubChem BioAssay data set” (2004)
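Interpolation was linear, between the two tested concentrations surrounding the appropriate level; five concentrations were tested over 48 hours in 96-well plates. GI50 = concentration required for 50% inhibition of growth.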 Active and inactive are the calls of the source. Rule as the data show it: active = GI50 up to about 1.1 µM and inactive = higher.

Columns and labels:
Assay in all cases: DTP human tumour cell line panel, 48 h
UACC-257 = system: UACC-257
UACC-62 = system: UACC-62
A498 = system: A498
TK-10 = system: TK-10
SR = system: SR
T47D = system: T47D
OVCAR-8 = system: OVCAR-8
PC-3 = system: PC-3
DU-145 = system: DU-145
SK-MEL-2 = system: SK-MEL-2
SF-539 = system: SF-539
SK-MEL-5 = system: SK-MEL-5
U-251 = system: U-251
786-0 = system: 786-0
KM12 = system: KM12
SW-620 = system: SW-620
MOLT-4 = system: MOLT-4
HCC 2998 = system: HCC 2998
NCI-H226 = system: NCI-H226
HOP-92 = system: HOP-92

Measured: GI50

COc1ccc2c(c1)CC1=C(O2)c2ccc(OC)cc2OC1
inactive: UACC-257 19.2 µM | UACC-62 17.7 µM | A498 > 100 µM | TK-10 22.6 µM | SR 36.8 µM | T47D 13.9 µM | OVCAR-8 29.9 µM | PC-3 23.2 µM | DU-145 44.1 µM | SK-MEL-2 31.3 µM | SF-539 35.9 µM | SK-MEL-5 18.2 µM | U-251 17.5 µM | 786-0 21.3 µM | KM12 31 µM | SW-620 16.6 µM | MOLT-4 33.4 µM | HCC 2998 38.5 µM | NCI-H226 18.5 µM

COC(=O)/C=C/[C@H]1[C@H](C)N1S(=O)(=O)c1ccc(C)cc1 (stereo partly drawn)
inactive: UACC-257 > 100 µM | UACC-62 > 100 µM | A498 > 100 µM | TK-10 > 100 µM | SR 31.6 µM | T47D > 100 µM | OVCAR-8 > 100 µM | PC-3 > 100 µM | DU-145 > 100 µM | SK-MEL-2 68.7 µM | SF-539 37 µM | SK-MEL-5 > 100 µM | U-251 > 100 µM | 786-0 82.4 µM | KM12 > 100 µM | SW-620 80.4 µM | MOLT-4 70.5 µM | HCC 2998 > 100 µM | NCI-H226 > 100 µM

COC1OC(Cn2cc([N+](=O)[O-])nc2C)C(O)C(O)C1O (stereo not drawn)
inactive: UACC-257 > 100 µM | UACC-62 > 100 µM | A498 > 100 µM | SR > 100 µM | T47D > 100 µM | PC-3 > 100 µM | HOP-92 > 100 µM | DU-145 > 100 µM | SK-MEL-2 > 100 µM | SK-MEL-5 > 100 µM | U-251 > 100 µM | 786-0 > 100 µM | KM12 > 100 µM | SW-620 > 100 µM | MOLT-4 > 100 µM | HCC 2998 > 100 µM

C=C1C(=O)CCC1C(=O)O (stereo not drawn)
inactive: UACC-257 61.8 µM | UACC-62 > 100 µM | A498 > 100 µM | TK-10 > 100 µM | SR > 100 µM | T47D > 100 µM | OVCAR-8 > 100 µM | PC-3 > 100 µM | DU-145 > 100 µM | SK-MEL-2 > 100 µM | SF-539 > 100 µM | SK-MEL-5 > 100 µM | U-251 > 100 µM | 786-0 > 100 µM | KM12 > 100 µM | SW-620 > 100 µM | MOLT-4 > 100 µM | HCC 2998 > 100 µM | NCI-H226 > 100 µM

COc1ccc(-c2c3ccccc3c(-c3ccc(OCCBr)cc3)c3ccccc23)cc1
inactive: UACC-257 > 100 µM | UACC-62 > 100 µM | A498 > 100 µM | TK-10 > 100 µM | SR > 100 µM | T47D > 100 µM | OVCAR-8 > 100 µM | PC-3 > 100 µM | DU-145 > 100 µM | SK-MEL-2 > 100 µM | SF-539 > 100 µM | SK-MEL-5 > 100 µM | U-251 > 100 µM | 786-0 > 100 µM | KM12 > 100 µM | SW-620 > 100 µM | MOLT-4 > 100 µM | HCC 2998 > 100 µM | NCI-H226 > 100 µM

O=C(N/N=C\c1ccc([N+](=O)[O-])cc1)c1ccccc1Nc1ccccc1C(=O)N/N=C/c1ccc([N+](=O)[O-])cc1
inactive: UACC-257 > 100 µM | UACC-62 > 100 µM | A498 > 100 µM | TK-10 > 100 µM | SR 79.3 µM | T47D > 100 µM | OVCAR-8 > 100 µM | PC-3 > 100 µM | HOP-92 > 100 µM | DU-145 > 100 µM | SK-MEL-2 > 100 µM | SK-MEL-5 > 100 µM | U-251 > 100 µM | 786-0 > 100 µM | KM12 > 100 µM | SW-620 > 100 µM | MOLT-4 66.2 µM | HCC 2998 > 100 µM | NCI-H226 > 100 µM

CC1C2CC(CC2=O)C1(C)C (stereo not drawn)
inactive: UACC-257 > 100 µM | UACC-62 > 100 µM | A498 > 100 µM | TK-10 > 100 µM | SR > 100 µM | T47D > 100 µM | OVCAR-8 > 100 µM | PC-3 > 100 µM | HOP-92 > 100 µM | DU-145 > 100 µM | SF-539 > 100 µM | SK-MEL-5 > 100 µM | U-251 > 100 µM | 786-0 > 100 µM | KM12 > 100 µM | SW-620 > 100 µM | MOLT-4 > 100 µM | HCC 2998 > 100 µM | NCI-H226 > 100 µM

Nc1ccc(-c2nc3ccccc3s2)cc1C#Cc1ccccc1
inactive: UACC-257 16 µM | UACC-62 17.9 µM | A498 21 µM | TK-10 13.9 µM | SR 37.5 µM | T47D 27 µM | OVCAR-8 19.8 µM | PC-3 18.5 µM | HOP-92 18.8 µM | DU-145 23.8 µM | SF-539 18.2 µM | SK-MEL-5 17 µM | U-251 20.1 µM | 786-0 17.7 µM | KM12 16.7 µM | SW-620 17.8 µM | MOLT-4 32.5 µM | NCI-H226 20.1 µM
